Results reported in PMC3566764, “Thioester derivatives of the natural product psammaplin A as potent histone deacetylase inhibitors” (Beilstein Journal of Organic Chemistry, 2013).
Read-outs that look alike come from different tables or passages of the source. Each block holds one compound with its values, some of them ahead of it.

Experiments:
[1] = tested on: MCF7 (human breast carcinoma); set-up: method as in PMID 22280363; conditions: in brackets, cited from earlier work
rHDAC1 [2] = molecular target: T1, rHDAC1 (Homo sapiens, UniProt Q13547); set-up: method as in PMID 22280363; conditions: in brackets, cited from earlier work
T1 construct: purchased BPS Bioscience (US)
T1 sequence (Q13547 whole entry): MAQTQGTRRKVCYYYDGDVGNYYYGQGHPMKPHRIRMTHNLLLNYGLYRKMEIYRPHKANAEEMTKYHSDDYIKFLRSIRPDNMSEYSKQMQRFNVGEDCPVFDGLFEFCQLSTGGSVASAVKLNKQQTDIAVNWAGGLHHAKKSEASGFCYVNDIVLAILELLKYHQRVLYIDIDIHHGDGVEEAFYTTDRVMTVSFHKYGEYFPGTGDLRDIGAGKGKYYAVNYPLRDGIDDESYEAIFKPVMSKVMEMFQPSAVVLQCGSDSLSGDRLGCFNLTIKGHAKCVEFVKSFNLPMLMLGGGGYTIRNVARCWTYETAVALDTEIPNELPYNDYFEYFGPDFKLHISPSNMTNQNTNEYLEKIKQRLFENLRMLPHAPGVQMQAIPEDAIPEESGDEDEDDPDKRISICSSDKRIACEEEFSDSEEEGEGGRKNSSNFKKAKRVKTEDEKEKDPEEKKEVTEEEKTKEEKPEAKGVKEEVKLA

[3] = tested on: A549 (human lung carcinoma); set-up: method as in PMID 22280363; conditions: in brackets, cited from earlier work
[4] = molecular target: T2, recombinant human HDAC6 (rHDAC6) (Homo sapiens, UniProt Q9UBN7); set-up: method as in PMID 22280363; conditions: in brackets, cited from earlier work
T2 construct: purchased BPS Bioscience (US)
T2 sequence (Q9UBN7 1-1215): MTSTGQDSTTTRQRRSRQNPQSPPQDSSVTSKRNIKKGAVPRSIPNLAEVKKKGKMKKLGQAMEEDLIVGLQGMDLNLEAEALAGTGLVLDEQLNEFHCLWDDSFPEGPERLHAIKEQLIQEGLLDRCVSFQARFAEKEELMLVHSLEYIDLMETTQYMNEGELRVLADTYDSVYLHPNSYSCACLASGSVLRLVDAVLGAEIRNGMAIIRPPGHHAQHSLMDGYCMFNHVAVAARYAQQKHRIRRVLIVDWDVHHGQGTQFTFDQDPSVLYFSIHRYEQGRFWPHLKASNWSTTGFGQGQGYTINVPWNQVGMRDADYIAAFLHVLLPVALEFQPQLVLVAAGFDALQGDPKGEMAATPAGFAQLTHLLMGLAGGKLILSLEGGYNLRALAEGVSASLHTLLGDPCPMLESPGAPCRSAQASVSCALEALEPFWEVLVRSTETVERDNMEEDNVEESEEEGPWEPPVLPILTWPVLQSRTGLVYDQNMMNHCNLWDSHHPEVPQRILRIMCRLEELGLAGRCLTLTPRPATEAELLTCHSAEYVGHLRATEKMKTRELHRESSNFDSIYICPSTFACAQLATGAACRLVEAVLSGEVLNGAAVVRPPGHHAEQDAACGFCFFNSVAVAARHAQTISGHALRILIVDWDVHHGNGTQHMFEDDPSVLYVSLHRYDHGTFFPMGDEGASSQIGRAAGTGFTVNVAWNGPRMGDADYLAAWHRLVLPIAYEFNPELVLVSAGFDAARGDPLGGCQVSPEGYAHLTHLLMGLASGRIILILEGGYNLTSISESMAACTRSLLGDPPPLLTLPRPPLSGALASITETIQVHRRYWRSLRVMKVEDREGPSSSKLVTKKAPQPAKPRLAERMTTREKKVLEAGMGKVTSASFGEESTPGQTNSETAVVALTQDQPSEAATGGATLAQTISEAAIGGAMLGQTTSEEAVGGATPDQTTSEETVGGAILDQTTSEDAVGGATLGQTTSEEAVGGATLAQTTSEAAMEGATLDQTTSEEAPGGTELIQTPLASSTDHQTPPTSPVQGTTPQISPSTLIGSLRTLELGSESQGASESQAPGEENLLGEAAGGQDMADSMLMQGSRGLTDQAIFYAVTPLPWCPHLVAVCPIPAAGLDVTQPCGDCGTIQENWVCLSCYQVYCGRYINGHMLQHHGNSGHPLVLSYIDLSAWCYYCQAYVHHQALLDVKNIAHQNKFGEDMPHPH

[5] = tested on: WI38 (normal human lung fibroblast); set-up: method as in PMID 22280363; conditions: in brackets, cited from earlier work
rHDAC1 [6] = molecular target: T1, rHDAC1; assay: rHDAC1 inhibition, coupled Boc-Lys(Ac)-AMC/trypsin fluorescence assay; assay type: biochemical; conditions: for IC50^6/1 (ratio IC50 HDAC6/IC50 HDAC1): isoform selectivity in vitro; for IC50: purified recombinant human HDAC1
Method: (§1) HDAC assays were performed as previously reported. The recombinant human histone deacetylases rHDAC1 and rHDAC6 were obtained from BPS Bioscience (US).
(§2) All reactions were performed in black half area 96-well microplates (Greiner bio-one, Germany) according to the general procedure described by Wegener et al. with some minor modifications. […] The buffer components were purchased from Merck (Germany), Roth (Germany) and Sigma-Aldrich.
(§3) The enzyme reaction was initiated by the addition of Boc-Lys(Ac)-AMC substrate. The reaction mixture was incubated at 30 °C in the dark and stopped after 60 min by the addition of a mixture of 70 µM trypsin and 200 nM SAHA. The fluorescence of AMC served as an indirect measure of HDAC enzyme activity. The kinetics of AMC release was measured on a PolarStar fluorescence plate reader (BMG) with an excitation wavelength of 340 nm and an emission wavelength of 460 nm. Complete cleavage of deacetylated Boc-Lys-AMC by trypsin was achieved after about 10–15 min. The fluorescence intensity of the plateau was averaged over at least 5 min and normalized with respect to the percentage of enzyme activity. Finally, the normalized fluorescence intensities were plotted versus the concentration of test compounds and fitted to a four-parameter logistic model to calculate the IC50 values.

[7] = molecular target: T2, recombinant human HDAC6 (rHDAC6); assay: rHDAC6 inhibition, coupled Boc-Lys(Ac)-AMC/trypsin fluorescence assay; assay type: biochemical; conditions: purified recombinant human HDAC6
Method: as §1, §2, §3

[8] = tested on: A549 (human lung carcinoma); assay: Cytotoxicity against A549 cell line; assay type: cell-based; conditions: for IC50: Homo sapiens, A549 cells
Method: (§4) Thioesters 7–9 were assayed against A549, MCF7 and WI38 cell lines, in addition to recombinant human rHDAC1 (class I) and recombinant human HDAC6 (rHDAC6, class II) as previously reported. Psammaplin A (3), prereduced psammaplin A thiol (4), and SAHA (1) were included as control compounds. IC50^6/1 is defined by the ratio IC50^HDAC6/IC50^HDAC1 and was used as an indicator of isoform selectivity in vitro.

[9] = tested on: WI38 (normal human lung fibroblast); assay: Cytotoxicity against WI38 cell line; assay type: cell-based; conditions: for IC50: Homo sapiens, WI-38, WI38 cells
Method: as §4

[10] = tested on: MCF7 (human breast carcinoma); assay: Cytotoxicity against MCF7 cell line; assay type: cell-based; conditions: MCF7 cells
Method: as §4

rHDAC1 [11] = molecular target: T1, rHDAC1; assay: rHDAC1 inhibition as a function of initial incubation time; assay type: biochemical; conditions: thioester at IC50 concentration, incubation 1–60 minutes
Method: An alternative hypothesis for the high potency of the thioester inhibitors is that the HDAC enzyme cleaves the acetyl group directly, utilizing its intrinsic deacetylase activity. Inhibition of rHDAC1 was measured (at the IC50 concentration of thioester) as a function of the initial incubation time (1–60 minutes) of rHDAC1 with thioesters 7 and 9 (Figure 2). […] Finally, we assessed whether the use of thioester inhibitors could influence the assay readout, when using our coupled HDAC assay. Trypsin-dependant generation of the fluorescence intensity (2nd step of our coupled assay) was discounted as a source of false-positive activity, since trypsin was used in a large excess (430 μM) compared to the thioesters (low micromolar to nanomolar). Direct compound inhibition of trypsin would therefore not be significant in the overall readout on stoichiometry grounds.
Figure 2 rHDAC1 was incubated with a predetermined IC50 concentration of 7 (left) and 9 (right) for 1–60 minutes, and the remaining rHDAC1 activity (Y-axis, %) was recorded and plotted as a function of the incubation time (X-axis, minutes).
A serial dilution of test compounds was pre-incubated with 7.4 nM rHDAC1 or 2.8 nM rHDAC6, at 21 ± 1 °C in the dark for different periods of time as indicated. […] The fluorescence of AMC served as an indirect measure of HDAC enzyme activity. […]

[12] = first value: corresponding disulfide
[13] = second value: corresponding thiol

Compound: COc1ccc(CC(=O)C(=O)NCCSSCCNC(=O)C(=O)Cc2ccc(OC)c(Br)c2)cc1Br [disulfide of 9]
IC50 [1, 12]: 3.9 µM | IC50 (rHDAC1 [2]; [12]): 9 µM | IC50^6/1 (ratio IC50 HDAC6/IC50 HDAC1) (rHDAC1 [2]; [12]): 0.9 | IC50 [3, 12]: 10 µM | IC50 [4, 12]: 8 µM | IC50 [5, 12]: 4.1 µM

Compound: COc1ccc(CC(=O)C(=O)NCCS)cc1Br [thiol of 9]
IC50 [1, 13]: 3.4 µM | IC50 (rHDAC1 [2]; [13]): 1.1 µM | IC50^6/1 (ratio IC50 HDAC6/IC50 HDAC1) (rHDAC1 [2]; [13]): 0.22 | IC50 [3, 13]: 11 µM | IC50 [4, 13]: 0.25 µM | IC50 [5, 13]: 14 µM

Compound: O=C(CCCCCCC(=O)Nc1ccccc1)NO [SAHA (1), suberoylanilide hydroxamic acid]
IC50^6/1 (ratio IC50 HDAC6/IC50 HDAC1) (rHDAC1 [6]): 7

IC50^6/1 (ratio IC50 HDAC6/IC50 HDAC1) (rHDAC1 [6]): 360 | IC50 (rHDAC1 [6]): 0.001 µM | IC50 [7]: 0.36 µM
Compound: O=C(NCCS)/C(Cc1ccc(O)c(Br)c1)=N/O [PSA-SH (4)]
IC50 [8]: 2.5 µM | IC50 [9]: 3.4 µM | IC50 [10]: 2.4 µM

Compound: COc1ccc(CC(=NO)C(=O)NCCS)cc1Br [thiol of 8]
IC50 [1, 13]: 0.61 µM | IC50 (rHDAC1 [2]; [13]): 0.002 µM | IC50^6/1 (ratio IC50 HDAC6/IC50 HDAC1) (rHDAC1 [2]; [13]): 1772 | IC50 [3, 13]: 0.16 µM | IC50 [4, 13]: 3.2 µM | IC50 [5, 13]: 1.1 µM

IC50^6/1 (ratio IC50 HDAC6/IC50 HDAC1) (rHDAC1 [6]): 62 | IC50 (rHDAC1 [6]): 0.045 µM | IC50 [7]: 2.8 µM
Compound: O=C(NCCSSCCNC(=O)/C(Cc1ccc(O)c(Br)c1)=N/O)/C(Cc1ccc(O)c(Br)c1)=N/O [PSA (3), psammaplin A]
IC50 [8]: 7.5 µM | IC50 [9]: 3.4 µM | IC50 [10]: 1.3 µM

Compound: CON=C(Cc1ccc(OC)c(Br)c1)C(=O)NCCS [thiol of 7]
IC50 [1, 13]: 12 µM | IC50 (rHDAC1 [2]; [13]): 0.015 µM | IC50^6/1 (ratio IC50 HDAC6/IC50 HDAC1) (rHDAC1 [2]; [13]): 180 | IC50 [3, 13]: 5.1 µM | IC50 [4, 13]: 2.7 µM | IC50 [5, 13]: 10 µM

IC50^6/1 (ratio IC50 HDAC6/IC50 HDAC1) (rHDAC1 [6]): > 20 | IC50 (rHDAC1 [6]): 0.48 µM | IC50 [7]: 9.5 µM | variation of rHDAC1 inhibition with initial incubation time (rHDAC1 [11]): No variation of enzymatic inhibition
Compound: COc1ccc(CC(=O)C(=O)NCCSC(C)=O)cc1Br [Compound 9, (S)-2-(3-(3-Bromo-4-methoxyphenyl)-2-oxopropanamido)ethyl ethanethioate]
activity against A549 cells at the highest concentration tested ([8]; 50 μM): inactive | IC50 [8]: > 50 µM | activity against WI38 cells at the highest concentration tested ([9]; 50 μM): inactive | IC50 [9]: > 50 µM | IC50 [10]: 21 µM

IC50^6/1 (ratio IC50 HDAC6/IC50 HDAC1) (rHDAC1 [6]): > 417 | IC50 (rHDAC1 [6]): 0.12 µM | times less potent than the corresponding free thiol analogue against rHDAC1 (rHDAC1 [6]; thioester vs free thiol): 8 times | IC50 [7]: > 50 µM | variation of rHDAC1 inhibition with initial incubation time (rHDAC1 [11]): No variation of enzymatic inhibition
Compound: CO/N=C(\Cc1ccc(OC)c(Br)c1)C(=O)NCCSC(C)=O [Compound 7, (E)-(S)-2-(3-(3-Bromo-4-methoxyphenyl)-2-(methoxyimino)propanamido)ethyl ethanethioate]
IC50 [8]: 44 µM | IC50 [9]: 17 µM | IC50 [10]: 12 µM

Compound: CON=C(Cc1ccc(OC)c(Br)c1)C(=O)NCCSSCCNC(=O)C(Cc1ccc(OC)c(Br)c1)=NOC [disulfide of 7]
IC50 [1, 12]: 13 µM | IC50 (rHDAC1 [2]; [12]): 0.22 µM | IC50^6/1 (ratio IC50 HDAC6/IC50 HDAC1) (rHDAC1 [2]; [12]): > 230 | IC50 [3, 12]: 46 µM | IC50 [4, 12]: > 50 µM

Compound: COc1ccc(CC(=NO)C(=O)NCCSSCCNC(=O)C(Cc2ccc(OC)c(Br)c2)=NO)cc1Br [disulfide of 8]
IC50 [1, 12]: 0.63 µM | IC50 (rHDAC1 [2]; [12]): 0.043 µM | IC50^6/1 (ratio IC50 HDAC6/IC50 HDAC1) (rHDAC1 [2]; [12]): 46 | IC50 [3, 12]: 4.1 µM | IC50 [4, 12]: 2 µM | IC50 [5, 12]: 2.2 µM
